For one assay, the target named is HLA-A2.1 (Homo sapiens, UniProt P04439, D140Y/D185E/D98H/E176V/E277Q/G131W/G231S/I119V/I121R/I166T/I218V/L300P/L318F/N151K/N90K/P208A/P217A/Q86G/Q94H/R138H/R169H/T345S). The experiment in a line: Competition assay of peptide binding to HLA-A2.1 (inhibition of M1 58-66 binding, clone 12 lysis of EA2 targets).
Another assay deals with A2.1/K^b-Tg mice. The experiment in a line: Peptide priming of A2.1/K^b-Tg mice, lytic activity of peptide-specific CTL. Type of assay: in vivo. Also noted: Lytic Activity by Peptide-Specific CTL After Priming of A2.1/K^b-Tg Mice [Specific ^51Cr release (%)]: concentration or dose not given beside the values.
In assay [1] the test system is peptide-pulsed T2 targets. Type of assay: cell-based, human.
The test system of another assay is LG-2. The experiment in a line: Cytotoxicity assay, killing of tumors (Table 7). Type of assay: cell-based, human. To be noted: LG-2, EBV-trans., A2 +, Her-2 −. On the procedure: (§1) One hundred and six (106) target cells were incubated at 37° C. with […] of sodium ^51Cr chromate for 90 minutes in the presence or absence of specific peptide. Cells were washed three times and resuspended in 5% RPMI. For the assay, 104 ^51Cr-labeled target cells were incubated with different concentrations of effector cells in a final volume of […] in U-bottomed 96-well plates. Supernatants were removed after 4-7 hrs at 37° C., and the percent specific lysis was determined by the following formula: […]
(§2) Tumor cells were preincubated for 24 hours prior to the assay in media supplemented with γ-interferon (γ-IFN, 20 ng/ml) plus tumor necrosis factor-α (TNF-α, 3 ng/ml). It is known that such pretreatment of tumor cells increases the expression of MHC I and adhesion molecules such as ICAM I on the surface of the cell thus enhancing their sensitivity to lysis by CTL. (See, e.g., Fisk, et al., Lympho. & Cylokine Res. 13: 125-131 (1994); Fady, et al., Cancer Immunol. Immunother. 37: 329-336 (1993).)

A further assay has as its system MCF-7. The experiment in a line: Cytotoxicity assay, killing of tumors (Table 7). It is filed as cell-based, human. The following applies: MCF-7, Breast, A2 +, Her-2 +. On the procedure:
as §1, §2

The test system of another assay is T98G. The experiment in a line: Cytotoxicity assay, killing of tumors (Table 7). Type of assay: cell-based, human. The following applies: T98G, Glioblastoma, A2 +, Her-2 +. On the procedure: as §1, §2
The next assay has as its system Hep-G2. The experiment in a line: Cytotoxicity assay, killing of tumors (Table 7). To be noted: Hep-G2, Hepatoma, A2 +, Her-2 +. Type of assay: cell-based, human. On the procedure: as §1, §2
The subject of another assay is U2-OS. The experiment in a line: Cytotoxicity assay, killing of tumors (Table 7). It is filed as cell-based, human. To be noted: U2-OS, Osteosarcoma, A2 +, Her-2 +. On the procedure: as §1, §2
Another assay deals with SW480. The experiment in a line: Cytotoxicity assay, killing of tumors (Table 7). It is filed as cell-based, human. The following applies: SW480, Colon, A2 +, Her-2 +. On the procedure:
as §1, §2

For a further assay, the system named is SAOS.175. The experiment in a line: Cytotoxicity assay, killing of tumors (Table 7). It is filed as cell-based, human. The following applies: SAOS.175, Osteosarcoma, A2 +, Her-2 +. On the procedure:
as §1, §2

The test system of a further assay is U87G. The experiment in a line: Cytotoxicity assay, killing of tumors (Table 7). To be noted: U87G, Glioblastoma, A2 +, Her-2 −. It is filed as cell-based, human. On the procedure: as §1, §2
In the next assay the test system is JY. The experiment in a line: Cytotoxicity assay, killing of tumors (Table 7). Type of assay: cell-based, human. The following applies: JY, Lymphoma, A2 +, Her-2 −. On the procedure: as §1, §2
A further assay deals with ST486. The experiment in a line: Cytotoxicity assay, killing of tumors (Table 7). It is filed as cell-based, human. The following applies: ST486, Lymphoma, A2 +, Her-2 −. On the procedure:
as §1, §2

A further assay has as its system OVCAR-5. The experiment in a line: Cytotoxicity assay, killing of tumors (Table 7). Type of assay: cell-based, human. To be noted: OVCAR-5, Ovarian, A2 +, Her-2 +. On the procedure: as §1, §2
Another assay has as its system BT549. The experiment in a line: Cytotoxicity assay, killing of tumors (Table 7). It is filed as cell-based, human. The following applies: BT549, Breast, A2 +. On the procedure:
as §1, §2

The next assay concerns CASKI. The experiment in a line: Cytotoxicity assay, killing of tumors (Table 7). Type of assay: cell-based, human. To be noted: CASKI, Cervix, A2 +, Her-2 +. On the procedure:
as §1, §2

The subject of the next assay is MALME-3M. The experiment in a line: Cytotoxicity assay, killing of tumors (Table 7). It is filed as cell-based, human. The following applies: MALME-3M, Melanoma, A2 +, Her-2 +. On the procedure: as §1, §2
The test system of the next assay is MDA.M8231. The experiment in a line: Cytotoxicity assay, killing of tumors (Table 7). It is filed as cell-based, human. The following applies: MDA.M8231, Breast, A2 +. On the procedure: as §1, §2
The next assay has as its system SV80. The experiment in a line: Cytotoxicity assay, killing of tumors (Table 7). It is filed as cell-based, human. The following applies: SV80, Fibroblast, A2 +, Her-2 −. On the procedure: as §1, §2
For a further assay, the system named is NCI.H1355. The experiment in a line: Cytotoxicity assay, killing of tumors (Table 7). Type of assay: cell-based, human. The following applies: NCI.H1355, Lung, A2 +. On the procedure: as §1, §2
In another assay the test system is SKMEL-5. The experiment in a line: Cytotoxicity assay, killing of tumors (Table 7). It is filed as cell-based, human. The following applies: SKMEL-5, Melanoma, A2 +, Her-2 +. On the procedure:
as §1, §2

In a further assay the test system is MDA.MB435. The experiment in a line: Cytotoxicity assay, killing of tumors (Table 7). Type of assay: cell-based, human. The following applies: MDA.MB435, Breast, A2 −, Her-2 +. On the procedure:
as §1, §2

Setting [2] is: + CYT (γ-IFN plus TNF-α, 24 hours).

The values that follow come from patent US7402314B2, “In vivo activation of tumor-specific cytotoxic T cells” (The Scripps Research Institute, priority 1995, dated 2008).

In the case of STPPPGTRV [hu-wt-p53 149-157], the “A2.1-binding activity / affinity for the presenting MHC class I molecule (in words)” value with HLA-A2.1 is “intermediate affinity”. In addition, the “Lytic Activity by Peptide-Specific CTL After Priming of A2.1/K^b-Tg Mice [Specific ^51Cr release (%)]” value in the assay with A2.1/K^b-Tg mice (E:T ratio of 60:1, peptide-pulsed T2A2/K^b targets, highest of at least three individual mice) was 91%. Also, in the assay on A2.1/K^b-Tg mice (mouse, in vivo), the “A2.1/K^b-restricted peptide-specific CTL response of A2.1/K^b-Tg mice (in words)” value is “detectable”. The “peptide concentration required for equivalent lysis of T2 targets by A2 vs. A2.1/K^b derived CTL (fold less)” value in [1] is 3 fold.
On to VMAGVGSPYV [Peptide H7], for which the “Killing of Tumors Expressing Her-2/neu (percent specific lysis)” value (“Killing … (percent specific lysis)” below) amounted to 3% in the assay on LG-2 (setting [2]); 1% with LG-2 (no cytokines); 40% in the assay with MCF-7 (setting [2]); 7% with MCF-7 (no cytokines); 93% in the assay on T98G (setting [2]); 29% in the assay with T98G (no cytokines). The “Killing … (percent specific lysis)” value is reported as 29% in the assay with Hep-G2 (setting [2]); 4% with Hep-G2 (no cytokines); 62% in the assay on U2-OS (setting [2]); 30% with U2-OS (no cytokines); 17% with SW480 (setting [2]); 2% in the assay on SW480 (no cytokines). Further, the “Killing … (percent specific lysis)” value is recorded as 35% in the assay on SAOS.175 (setting [2]); 27% in the assay on SAOS.175 (no cytokines); 1% with U87G (setting [2]); 1% with U87G (no cytokines); 2% with JY (setting [2]); 4% in the assay with JY (no cytokines). Besides, the “Killing … (percent specific lysis)” value in the assay with ST486 (setting [2]) is recorded as 8%; with ST486 (no cytokines), 5%; in the assay on OVCAR-5 (setting [2]), 23%; with OVCAR-5 (no cytokines), 13%; in the assay with BT549 (setting [2]), 36%; with BT549 (no cytokines), 2%. The “Killing … (percent specific lysis)” value in the assay on CASKI (setting [2]) turned out to be 20%; in the assay with CASKI (no cytokines) it was 9%; in the assay with MALME-3M (setting [2]) it was 14%; in the assay with MALME-3M (no cytokines), 4%; in the assay with MDA.M8231 (setting [2]), 89%; in the assay with MDA.M8231 (no cytokines), 26%. Further, the “Killing … (percent specific lysis)” value in the assay on SV80 (setting [2]) turned out to be 2%; in the assay on SV80 (no cytokines), 2%; in the assay with NCI.H1355 (setting [2]), 62%; with NCI.H1355 (no cytokines), 13%; in the assay with SKMEL-5 (setting [2]) it was 40%; in the assay on SKMEL-5 (no cytokines) it was 16%. In addition, the “Killing … (percent specific lysis)” value in the assay with MDA.MB435 (setting [2]) and with MDA.MB435 (no cytokines) was 1% each time.
